Consider one substance from patent US20060019329A1, “Method of screening for protein inhibitors and activators” (priority 1988, published 2006).

The test system of experiment [1] is CHO/HIRC cells overproducing the human insulin receptor. The experiment is described as follows: Morphologic and growth control effects of insulin on CHO/HIRC test cells. To be noted: 400 nM insulin. The class given is cell-based, Chinese Hamster. From the text:
(§1) These cell lines were generated using approaches analogous to those previously described for the PKC-overproducing cell lines. However, in these HIR studies we utilized a different expression vector, distinct cell lines, and an alternative method of gene transfer (direct transfection as opposed to virus-mediated transduction as used in the PKC experiments previously described). Briefly, CHO cells were co-transfected with the transfer vector pSVEneo (containing the neomycin resistance gene) and the expression vector pCVSVHIRc as previously described (White et al., 1988). After twenty four hours, the transfected cells were placed into 800 ug/ml G418 to select resistant cells. Approximately two weeks later, G418-resistant clones were isolated and subcloned. Clonal cell lines which express high levels of surface insulin receptors were selected by fluorescence-activated cell sorting. One such line (CHO/HIRC), which stably overproduced approximately 80,000 insulin receptors per CHO cell, was utilized in these experiments. A control CHO cell line (CHO/NEO), harboring only the pSVEneo transfer vector, were generated in analogous fashion. Detailed preliminary characterizations of this cell line have been described (White et al., 1988).
We then tested the ability of the CHO/HIRC and CHO/NEO cells to respond to the following insulin treatment protocol. Control cells, hereinafter termed CHO/NEO (which harbor pSVEneo alone), and the Test cells, termed CHO/HIRC (which stably overproduced about 80,000 insulin receptors per cell), were incubated in the presence and absence of insulin. Control (CHO/NEO) and Test (CHO/HIRC) cell lines were exposed to 400 nM of insulin and the resultant morphologic changes were observed and photographed using a Bausch and Lomb BL-200 phase-contrast microscope with a Nikon FM-200 camera attached.

The test system of the next experiment is CHO/NEO control cells. The experiment is described as follows: Morphologic and growth control effects of insulin on CHO/NEO control cells. The class given is cell-based, Chinese Hamster. Conditions: 400 nM insulin, 48 hours after treatment.
Excerpt: as §1
We then tested the ability of the CHO/HIRC and CHO/NEO cells to respond to the following insulin treatment protocol. […]

Consider insulin, for which the morphologic changes result was “further pronounced” in experiment [1] (24 hours after exposure) and “profound morphologic changes” in experiment [1] (after 18 hours). Besides, the “adherence to the culture plate” value is “virtually all of the test cells had completely detached from the plate” in experiment [1] (48 hours after treatment) and “still largely intact” in the experiment on CHO/NEO control cells.
